Our source for the IC50 values is ChEMBL document CHEMBL1137185, “Cytotoxic effects and reversal of multidrug resistance by ibogan and related indole alkaloids” (Bioorg Med Chem Lett, 2004).

For assay [1], the system named is KB. The experiment in a line: Cytotoxic activity against vincristine-resistant human oral epidermoid carcinoma cell line (KB/VJ300). In kind it is functional, cell-based.
For assay [2], the system named is KB. Nature of the assay: Cytotoxic activity against vincristine-sensitive human oral epidermoid carcinoma cell line(KB/S). Format: functional, cell-based.

≈ marks a conversion by molar mass, not a printed value. Some results are limits rather than exact numbers.

What is called IC50 is the concentration that inhibits the measured activity by half. Low values mean inhibition by little substance, high ones a need for much substance.

`CC[C@H]1C[C@@H]2CN3CC[C@]4(O)C(=Nc5ccccc54)[C@](C(=O)OC)(C2)[C@H]13` [CORONARIDINE HYDROXYINDOLENINE]: the IC50 in assay [1] and in assay [2] was above 25 µg/mL throughout.

For the molecule `CC[C@H]1C[C@@H]2CN3CCc4c([nH]c5cc(OC)ccc45)[C@](C(=O)OC)(C2)[C@H]13` [ISOVOACANGINE], the IC50 in assay [1] and in assay [2] was above 25 µg/mL each time.

With `CC[C@H]1C[C@@H]2CN3CCc4c([nH]c5ccc(OC)cc45)[C@](C(=O)OC)(C2)[C@H]13` [VOACANGINE], the IC50 in assay [1] and in assay [2] was above 25 µg/mL in each case.

For the molecule `CC[C@H]1C[C@@H]2C[C@@]3(C(=O)OC)c4c(c5ccccc5n4C2O)CCN[C@@H]13` (some centres not stated), the IC50 in assay [1] amounted to 2.5 µg/mL (≈ 7.05 µM); in assay [2], 3.5 µg/mL (≈ 9.87 µM).

Consider `COC(=O)[C@@]12C[C@@H]3C[C@H]([C@@H](C)O)[C@@H]1N(CCc1c2[nH]c2ccccc12)C3`, for which the figures for the IC50 in assay [1] and in assay [2] were 3.5 µg/mL (≈ 9.87 µM) and 25 µg/mL (≈ 70.5 µM), respectively.

Regarding `COC(=O)[C@]12C[C@H]3CC4[C@H](C)OCN(CCc5c1n(c1ccccc51)C3O)[C@@H]42` (some centres not stated), the results for the IC50 in assay [1] and in assay [2] were 4 µg/mL (≈ 10.5 µM) and 25 µg/mL (≈ 65.4 µM), respectively.

For `COC(=O)[C@@]12C[C@@H]3C[C@@H]([C@H](C)O)[C@@H]1NCCc1c2n(c2cc(OC)ccc12)[C@H]3O`, the 50% inhibitory concentration (IC50) in assay [1] and in assay [2] was above 25 µg/mL each time.

Turning to `COC(=O)[C@@]12C[C@@H]3C[C@H]([C@H](C)O)[C@@H]1N(CCc1c2[nH]c2ccccc12)C3`, the IC50 in assay [1] is 8.5 µg/mL (≈ 24 µM); in assay [2], above 25 µg/mL.

For the molecule `COC(=O)[C@@]12C[C@@H]3C[C@H]([C@@H](C)O)[C@@H]1N(CCc1c2[nH]c2cc(OC)ccc12)C3`, the IC50 in assay [1] and in assay [2] was above 25 µg/mL each time.

Regarding `CC[C@H]1C[C@H]2C[C@@]3(C(=O)OC)c4[nH]c5ccccc5c4CCN(C2C#N)[C@@H]13` (some centres not stated), the values for the concentration for half-maximal inhibition (IC50) in assay [1] and in assay [2] were 1.4 µg/mL (≈ 3.85 µM) and 2.2 µg/mL (≈ 6.05 µM), respectively.

Consider `CCOC1[C@H]2C[C@H]([C@H](C)O)[C@@H]3N1CCc1c([nH]c4ccccc14)[C@]3(C(=O)OC)C2` (some centres not stated), for which the 50% inhibitory concentration (IC50) in assay [1] and in assay [2] was above 25 µg/mL throughout.

On to `COC(=O)[C@@]12C[C@@H]3C[C@H](C(C)(O)O)[C@@H]1N(CCc1c2[nH]c2cc(OC)ccc12)C3`, for which the results for the IC50 in assay [1] and in assay [2] were 14.5 µg/mL (≈ 36.2 µM) and above 25 µg/mL, respectively.

As to `CC[C@H]1C[C@@H]2CN3CCc4c([nH]c5ccccc45)C(C)(C2)[C@H]13`, the IC50 in assay [1] and in assay [2] was above 25 µg/mL throughout.

Take `CC[C@H]1C[C@@H]2CN3CCc4c([nH]c5ccccc45)[C@](C(=O)OC)(C2)[C@H]13` [CORONARIDINE]: the IC50 in assay [1] was 2.6 µg/mL (≈ 7.68 µM); in assay [2], 11.5 µg/mL (≈ 34 µM).

Turning to `COC(=O)N1c2ccccc2C23CCN4CCCC5(CCC12[C@](O)(C(=O)OC)C5)[C@H]43` (some centres not stated), the IC50 in assay [1] is 0.64 µg/mL (≈ 1.55 µM); in assay [2], above 25 µg/mL.

For `CC[C@H]1C[C@H](CO)C[C@@]2(C(=O)OC)c3[nH]c4ccccc4c3CCN[C@@H]12`, the IC50 in assay [1] and in assay [2] was above 25 µg/mL in each case.

On to `COC(=O)[C@]12C[C@H]3CC4[C@H](C)OCN(CCc5c1n(c1cc(OC)ccc51)C3=O)[C@@H]42` (some centres not stated), for which the IC50 in assay [1] and in assay [2] was above 25 µg/mL each time.

Take `CCOC1[C@H]2C[C@H](CC)[C@@H]3N1CCc1c([nH]c4ccccc14)[C@]3(C(=O)OC)C2` (some centres not stated): the values for the half-inhibitory concentration (IC50) in assay [1] and in assay [2] were 13 µg/mL (≈ 34 µM) and above 25 µg/mL, respectively.

With `CC[C@H]1C[C@H]2C[C@@]3(C(=O)OC)c4[nH]c5cc(OC)ccc5c4CCN(C2C#N)[C@@H]13` (some centres not stated), the values for the IC50 in assay [1] and in assay [2] were 1.1 µg/mL (≈ 2.8 µM) and 1.9 µg/mL (≈ 4.83 µM), respectively.

Regarding `COC(=O)[C@@]12C[C@@H]3C[C@H]([C@H](C)O)[C@@H]1N(CCc1c2[nH]c2cc(OC)ccc12)C3` [ISOVOACRISTINE], the IC50 in assay [1] is 18.8 µg/mL (≈ 48.9 µM); in assay [2], above 25 µg/mL.

For the molecule `CCOC1[C@H]2C[C@H]([C@@H](C)O)[C@@H]3N1CCc1c([nH]c4ccccc14)[C@]3(C(=O)OC)C2` (some centres not stated), the IC50 in assay [1] and in assay [2] was above 25 µg/mL throughout.

As to `COC(=O)[C@@]12C[C@@H]3C[C@H]([C@@H](C)O)[C@@H]1N(CCc1c2[nH]c2ccccc12)C3=O`, the IC50 in assay [1] and in assay [2] was above 25 µg/mL each time.

With `CC[C@H]1C[C@H]2C[C@@]3(C(=O)OC)c4[nH]c5ccc(OC)cc5c4CCN(C2C#N)[C@@H]13` (some centres not stated), the IC50 in assay [1] was determined as 7 µg/mL (≈ 17.8 µM); in assay [2], 9.4 µg/mL (≈ 23.9 µM).

In the case of `CCC1C[C@H]2C[C@@]3(C(=O)OC)c4[nH]c5ccccc5c4CCN(C2=O)[C@@H]13` (some centres not stated), the IC50 in assay [1] and in assay [2] was above 25 µg/mL in each case.

As to `COC(=O)[C@@]12C[C@H]3C[C@@H](C(C)=O)[C@@H]1NCCc1c2n(c2ccccc12)C3O` (some centres not stated), the IC50 in assay [1] came to 2 µg/mL (≈ 5.43 µM); in assay [2] it was 25 µg/mL (≈ 67.9 µM).

With `C[C@H](O)[C@H]1C[C@H]2C[C@H]3c4[nH]c5ccccc5c4CCN(C2)[C@@H]13`, the half-inhibitory concentration (IC50) came to 7.8 µg/mL (≈ 26.3 µM) in assay [1] and 16.1 µg/mL (≈ 54.3 µM) in assay [2].
